In US11560385B2, “Proteasome activity enhancing compounds” (Proteostasis Therapeutics, Inc., priority 2018, dated 2023):

Each compound was assayed against USP14 (Homo sapiens (Human), UniProt P54578) (assay: Usp14 inhibition assay (Example 57B, B-series compounds)). Conditions: IC50 class; average value from a minimum of two experimental determinations.
USP14, sequence (P54578 whole entry, looked up): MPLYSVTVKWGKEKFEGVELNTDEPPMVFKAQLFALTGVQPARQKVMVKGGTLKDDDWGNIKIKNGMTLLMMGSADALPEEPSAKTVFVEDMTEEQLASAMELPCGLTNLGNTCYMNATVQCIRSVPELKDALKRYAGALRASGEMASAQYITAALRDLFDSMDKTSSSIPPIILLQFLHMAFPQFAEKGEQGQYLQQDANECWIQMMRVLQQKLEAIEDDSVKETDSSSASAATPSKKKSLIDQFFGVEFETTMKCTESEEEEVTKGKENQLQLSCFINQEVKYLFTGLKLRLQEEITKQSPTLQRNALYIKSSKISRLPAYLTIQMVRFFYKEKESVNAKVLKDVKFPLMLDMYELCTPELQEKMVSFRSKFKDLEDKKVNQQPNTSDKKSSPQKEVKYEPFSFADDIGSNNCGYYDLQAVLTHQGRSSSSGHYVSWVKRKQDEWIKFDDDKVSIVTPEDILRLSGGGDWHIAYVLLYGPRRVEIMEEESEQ
Type: biochemical
Source text: Example 57B: Usp14 Inhibition Assay
The IC50 values in the Table below represent the average value from a minimum of two experimental determinations.
`Cc1c(C(=O)CN2C3CCC2[C@@H](O)C3)cc(/C=C/CC2CC(C)(C)OC2=O)n1-c1ccc(C#N)cc1` (mixture of isomers) [Example 52B, (±)-4-(5-((E)-3-(5,5-Dimethyl-2-oxotetrahydrofuran-3-yl)prop-1-en-1-yl)-3-(2-((1S,2S,4R)-2-hydroxy-7-azabicyclo[2.2.1]heptan-7-yl)acetyl)-2-methyl-1H-pyrrol-1-yl)benzonitrile] was tested, and the IC50 was under 50 nM.
With `Cc1c(C(=O)CN2[C@H]3CC[C@@H]2[C@@H](O)C3)cc(CC2(Cl)CCC2)n1-c1ccc(C#N)cc1` (racemic) [Example 157B, (±)-4-(5-((1-Chlorocyclobutyl)methyl)-3-(2-((1S,2R,4R)-2-hydroxy-7-azabicyclo[2.2.1]heptan-7-yl)acetyl)-2-methyl-1H-pyrrol-1-yl)benzonitrile] the IC50 was 50 to 500 nM.
`Cc1c(C(=O)CN2[C@@H]3CC[C@@H]2[C@@H](O)C3)cc(/C=C/CN)n1-c1ccc(C#N)cc1` (racemic) [Example 156B, (±)-4-(5-((E)-3-Aminoprop-1-en-1-yl)-3-(2-((1S,2R,4S)-2-hydroxy-7-azabicyclo[2.2.1]heptan-7-yl)acetyl)-2-methyl-1H-pyrrol-1-yl)benzonitrile] was tested, and the IC50 was under 50 nM.
Work on `Cc1cc(C(=O)CN2C3CCC2[C@@H](O)C3)c(C)n1-c1ccc(C#N)c(F)c1F` (mixture of isomers) [Example 99B, (±)-2,3-Difluoro-4-(3-(2-((2R)-2-hydroxy-7-azabicyclo[2.2.1]heptan-7-yl)acetyl)-2,5-dimethyl-1H-pyrrol-1-yl)benzonitrile] yielded an IC50 of over 500 nM.
Work on `Cc1ncc(-c2cc(C(=O)CN3[C@@H]4CC[C@H]3[C@@H](O)C4)c(C)n2-c2ccc(C#N)cc2)s1` (racemic) [Example 147B, (±)-4-(3-(2-((1R,2R,4S)-2-Hydroxy-7-azabicyclo[2.2.1]heptan-7-yl)acetyl)-2-methyl-5-(2-methylthiazol-5-yl)-1H-pyrrol-1-yl)benzonitrile] yielded an IC50 of 50 to 500 nM.
Compound `Cc1c(C(=O)CN2C3CCC2[C@@H](O)C3)cc(C2CC2)n1-c1ccc(C#N)cc1` (mixture of isomers) [Example 98B, (±)-4-(5-Cyclopropyl-3-(2-((2R)-2-hydroxy-7-azabicyclo[2.2.1]heptan-7-yl)acetyl)-2-methyl-1H-pyrrol-1-yl)benzonitrile] has an IC50 of 50 to 500 nM.
Compound `Cc1c(C(=O)CN2C3CCC2[C@@H](O)C3)cc(/C=C/CCC#N)n1-c1ccc(C#N)cc1` (mixture of isomers) [Example 20B, (±)-4-(5-((E)-4-Cyanobut-1-en-1-yl)-3-(2-((2R)-2-hydroxy-7-azabicyclo[2.2.1]heptan-7-yl)acetyl)-2-methyl-1H-pyrrol-1-yl)benzonitrile] has an IC50 of under 50 nM.
With `Cc1c(C(=O)CN2C3CCC2[C@@H](O)C3)cc(CCCOC(F)(F)F)n1-c1ccc(C#N)cc1` (mixture of isomers) [Example 155B, (±)-4-(3-(2-((1R,2R,4R)-2-Hydroxy-7-azabicyclo[2.2.1]heptan-7-yl(acetyl)-2-methyl-5-(3-(trifluoromethoxy)propyl)-1H-pyrrol-1-yl)benzonitrile] the IC50 was 50 to 500 nM.
For `Cc1c(C(=O)CN2[C@@H]3CC[C@H]2[C@@H](O)C3)cc(CC2CC(C)(C)C2)n1-c1ccc(C#N)cc1` (racemic) [Example 134B, (±)-4-(5-((3,3-Dimethylcyclobutyl)methyl)-3-(2-((1R,2R,4S)-2-hydroxy-7-azabicyclo[2.2.1]heptan-7-yl)acetyl)-2-methyl-1H-pyrrol-1-yl)benzonitrile], the IC50 was under 50 nM.
In the case of `Cc1c(C(=O)CN2[C@@H]3CC[C@H]2[C@@H](O)C3)cc(C(C)C)n1-c1ccc(C#N)cc1` (racemic) [Example 112B, (±)-4-(3-(2-((1R,2R,4S)-2-Hydroxy-7-azabicyclo[2.2.1]heptan-7-yl)acetyl)-5-isopropyl-2-methyl-1H-pyrrol-1-yl)benzonitrile], the IC50 is reported as 50 to 500 nM.
With `Cc1cc(C(=O)CN2[C@@H]3CC[C@@H]2CC(O)(C(F)(F)F)C3)c(C)n1-c1ccc(C#N)cc1` (stereo partly drawn) [Example 74B, 4-(3-(2-((1R,3r,5S)-3-Hydroxy-3-(trifluoromethyl)-8-azabicyclo[3.2.1]octan-8-yl)acetyl)-2,5-dimethyl-1H-pyrrol-1-yl)benzonitrile] the IC50 was over 500 nM.
